# Assay results published in paper PMC10451377, “Rationally Designed Pyrimidine Compounds: Promising Novel Antibiotics for the Treatment of Staphylococcus aureus-Associated Bovine Mastitis” (Antibiotics, 2023).
# “Also recorded” adds a separate entry of the source.
# Experiments:
# [1] = Initial safety assessment in cows; type: in vivo; conditions: single intramammary infusion of 100, 250 or 500 mg
# Procedure: The innocuity of PC206 was evaluated in cows, as previously described for other test substances. Following morning milking, each of the four mammary gland quarters […] was infused with various doses of PC206 (100, 250, 500 mg) or saline as a negative control. […] Cows were milked using an individual quarter-milking unit in order to measure individual quarter-milk production. PC206 concentration in milk was also measured; milk samples were diluted with an equal volume of isopropanol and washed 3 times with hexane. PC206 was extracted using ethyl acetate, filtered on Na2SO4, and evaporated. The dried samples were diluted 80:20 in ACN:H2O containing an internal standard. The content of PC206 was determined using single-ion monitoring (SIMS) on UPLC-MS.
# [2] = test system: guanine riboswitch-lacZ fusion construct (xpt-lacZ); assay: Riboswitch regulation assay (lacZ-gene reporter); type: cell-based, B. subtilis; conditions: 64 µg/mL
# Excerpt: The novel pyrimidine compounds, especially PC206, display specificity and potency against some staphylococci but not the other bacterial genus (Table 1 and Table 2). Because they are structurally derived from PC1 and PC2, these novel antibiotic candidates are expected to have the same mode of action. […] To verify this hypothesis, a strain of B. subtilis with a guanine riboswitch-lacZ fusion construct (named xpt-lacZ) integrated in its chromosome was exposed to these new antimicrobials. […] Therefore, it is an adequate reporter species. The metabolization of substrate ONPG into colored ONP was normalized by the bacterial suspension absorbance at 600 nm (Miller units) and relativized to the untreated condition.
# β-galactosidase gene expression in the presence of the new pyrimidine analogs was studied, using an xpt-lacZ transcriptional fusion construct integrated in the genome of B. subtilis as previously described. Briefly, cultures were grown for 5 h at 35 °C in CAMHB, from an initial optical density of 0.05 at 600 nm (OD600), and then diluted 1:20 and in the presence of different concentrations of the compounds tested. Cultures were centrifuged for 10 min at 13,100 rpm, the supernatant was discarded, and pellets were suspended in a Z-buffer (NaH2PO4 40 mM, Na2HPO4 60 mM, MgSO4 1 mM, KCl 10 mM). Cultures OD600 were measured, and bacteria were then lysed with lysozyme (1 mg/mL) and β-mercaptoethanol 50 mM for 30 min. Lysates were centrifuged for 10 min at 13,100 rpm, and supernatants were incubated for 5 min at 30 °C with the substrate orthonitrophenyl-β-galactoside (ONPG; Sigma Aldrich). Reactions were stopped with Na2CO3 1M, supernatants OD420 were measured, and Miller units were calculated. A decrease in β-galactosidase activity indicated binding of the test compound to the riboswitch. Guanine and oxacillin were used as […] controls, respectively. The formula to measure Miller units is as follows: Millerunits=1000×OD420/t·v·OD600
# Here, t represents the time of incubation with ONPG, and v represents the volume of the reaction.
# [3] = test system: HepG2 and MAC-T cells versus S. aureus Newbould; assay: Selectivity ratios over both assays and both cell lines; type: cell-based; conditions: over MTT and LDH assays
# Procedure: All CC50 values are reported in Table 3, and plots are provided in the Supplementary Information (Supplementary Figure S2). PC371 had no effect on cell viability even at the highest concentrations tested (CC50 > 600 μM) in both the MTT and the LDH assay and for the two cell lines tested. For the three other compounds, in both cell lines and both assays, a correlation was observed between the effect on cell viability and the length of their aliphatic chain. CC50 of PC372 (5 carbons) was higher than that of PC206 (6 carbons), and both were higher than that of PC383 (10 carbons). Indeed, for the MAC-T cells in the MTT assay, the values were >600 μM (PC372), 317 μM (PC206), and 13.5 μM (PC383). Again, for the MAC-T cell line, the values for the LDH assay were >600 μM (PC372 and PC206) and 23.6 μM (PC383). Similar results were obtained with the HepG2 cells. […] Overall, the MAC-T cells tolerated better exposure to the compounds than the HepG2 cells. To assess the selectivity of the PC2 analogs towards S. aureus, selectivity ratios were calculated. These ratios were obtained by dividing the cytotoxicity CC50 values of an analog by its MIC against S. aureus Newbould. It was not possible to calculate the selectivity ratio for PC371 as its CC50 and MIC values exceeded the maximum values tested.
# [4] = test system: S. aureus Newbould, S. aureus CMRSA-10, S. epidermidis ATCC 12228; assay: Kill kinetics; type: cell-based, staphylococci
# Procedure: Time-kill kinetics studies were performed to define the bactericidal effect of PC206. S. aureus Newbould, CMRSA-10, or S. epidermidis ATCC 12228 were inoculated at a density of approximately 5 × 10^5 CFU/mL in CAMHB in the absence or presence of PC206 and were incubated with agitation (225 rpm) for 24 h at 35 °C. Right before inoculation and 0.5, 1, 2, 4, 8 and 24 h thereafter, bacterial cultures were sampled, serially diluted, and plated on tryptic soya agar (TSA) plates that were incubated at 35 °C for 24 h to determine viable counts with a detection limit of 2 log10 CFU/mL.
# [5] = test system: S. aureus bovine strain 2117 embedded in preformed biofilm; assay: Biofilm-eradication test (MBEC assay); type: cell-based, Staphylococcus aureus; conditions: 24 h exposure
# Procedure: The viability of bacteria in preformed biofilms treated with PC206 was evaluated using the MBEC assay™ system (formerly the Calgary Biofilm Device). The device consists of a plastic lid with 96 pegs and a 96-well plate. […] Plates were incubated at 35 °C for 24 h with agitation (120 rpm). […] The pegs were washed three times with PBS and the biofilm was sonicated for 10 min, and then transferred into a new 96-well base plate. The 96-well plate was centrifuged for 5 min at 180 g to recover the detached bacteria.
# [6] = test system: Enterococcus faecalis ATCC 29212; assay: Broth microdilution MIC; conditions: ATCC29212, read-out: Broth Microdilution MIC
smiles,measurement,setting,value
CCCCCCNc1cc(N)nc(N)n1 [PC206],Body temperature,[1],around 38 °C
same,Redness or swelling of quarters at milking,[1],Neither redness nor swelling was observed
same,Somatic cell counts and quarter-milk production,[1]; 69 h,remained unaffected; also recorded: did not impact somatic cells count
same,"Miller units remaining, relative to the untreated condition",[2],35%
same,"Selectivity ratio (CC50/MIC against S. aureus Newbould), overall",[3],above 3.9
same,Reduction of bacterial viable counts at 24 h compared to the initial inoculum,[4]; 4× MIC,0.5–1.5 log10 CFU/mL
same,Qualification from kill kinetics,"[4]; up to 4× MIC, 24 h",bacteriostatic agent
same,Reduction in CFU/peg compared to the untreated biofilm,[5]; 32 µg/mL,1.28 log10
same,Reduction in CFU/peg compared to the untreated biofilm,[5]; 128 µg/mL,2.40 log10
same,Reduction in CFU/peg compared to the untreated biofilm,[5]; 512 µg/mL,5.43 log10
same,MIC,[6],128 µg/mL
